Measurements from publication PMC3525729 (Bioorganic & medicinal chemistry letters, 2012).
Positions count from the first letter of the chain named. Blank lines part the entries; values can stand above or below the compound they belong to.

Assays:
hM2 = molecular target: T1, hM2 (Homo sapiens, UniProt P08172); assay: Human CRC screened as antagonist, hM2; assay type: cell-based; details: ACh EC80
T1 sequence (P08172 1-466): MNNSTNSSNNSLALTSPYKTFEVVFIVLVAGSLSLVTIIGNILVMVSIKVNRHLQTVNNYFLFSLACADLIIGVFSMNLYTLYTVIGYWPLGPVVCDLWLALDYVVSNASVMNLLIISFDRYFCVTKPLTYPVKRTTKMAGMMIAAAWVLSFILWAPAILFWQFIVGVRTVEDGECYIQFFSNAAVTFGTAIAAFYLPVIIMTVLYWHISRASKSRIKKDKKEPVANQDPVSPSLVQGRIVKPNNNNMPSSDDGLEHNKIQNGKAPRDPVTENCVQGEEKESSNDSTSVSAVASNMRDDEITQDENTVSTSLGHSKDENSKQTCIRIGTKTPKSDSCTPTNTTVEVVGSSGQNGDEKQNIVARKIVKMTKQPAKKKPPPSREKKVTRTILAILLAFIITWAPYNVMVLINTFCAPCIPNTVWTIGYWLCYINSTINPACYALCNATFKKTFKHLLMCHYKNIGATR

rM5 = molecular target: T2, rM5 (Rattus norvegicus, UniProt P08911); assay: CRC screened in agonist mode, rM5; assay type: cell-based
T2 sequence (P08911 1-531): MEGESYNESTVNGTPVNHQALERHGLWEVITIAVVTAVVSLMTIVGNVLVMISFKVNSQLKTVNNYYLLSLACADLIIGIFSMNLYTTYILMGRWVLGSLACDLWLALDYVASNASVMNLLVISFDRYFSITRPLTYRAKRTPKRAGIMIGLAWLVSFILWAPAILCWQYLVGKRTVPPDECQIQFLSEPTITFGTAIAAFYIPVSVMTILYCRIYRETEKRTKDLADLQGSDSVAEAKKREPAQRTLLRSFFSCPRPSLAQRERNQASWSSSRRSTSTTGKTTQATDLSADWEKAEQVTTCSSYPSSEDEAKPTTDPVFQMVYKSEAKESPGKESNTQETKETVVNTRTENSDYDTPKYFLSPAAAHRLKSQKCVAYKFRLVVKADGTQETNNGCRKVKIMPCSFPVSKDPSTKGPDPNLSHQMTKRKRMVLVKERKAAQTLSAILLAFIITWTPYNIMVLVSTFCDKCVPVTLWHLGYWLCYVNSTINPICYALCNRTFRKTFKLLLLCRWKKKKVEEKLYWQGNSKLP

hM1 = molecular target: T3, hM1 (Homo sapiens, UniProt P11229); details: screened as agonist
T3 sequence (P11229 1-460): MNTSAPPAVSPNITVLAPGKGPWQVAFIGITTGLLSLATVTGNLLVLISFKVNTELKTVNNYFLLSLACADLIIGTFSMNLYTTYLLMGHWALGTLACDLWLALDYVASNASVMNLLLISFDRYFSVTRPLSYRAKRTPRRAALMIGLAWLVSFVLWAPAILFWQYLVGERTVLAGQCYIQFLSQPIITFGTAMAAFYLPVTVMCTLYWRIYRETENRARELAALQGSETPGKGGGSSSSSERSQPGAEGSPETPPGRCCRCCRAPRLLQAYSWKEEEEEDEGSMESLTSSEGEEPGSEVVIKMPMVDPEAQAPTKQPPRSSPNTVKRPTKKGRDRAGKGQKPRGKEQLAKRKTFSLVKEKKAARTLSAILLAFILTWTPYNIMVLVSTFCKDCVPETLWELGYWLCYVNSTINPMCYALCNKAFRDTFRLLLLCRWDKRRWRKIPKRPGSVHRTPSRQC

rM3 = rM3 (Rattus norvegicus, UniProt P08483); assay: CRC screened as antagonist in presence of ACh EC80, rM3; assay type: cell-based; details: antagonist mode
rM3, sequence (P08483 whole entry): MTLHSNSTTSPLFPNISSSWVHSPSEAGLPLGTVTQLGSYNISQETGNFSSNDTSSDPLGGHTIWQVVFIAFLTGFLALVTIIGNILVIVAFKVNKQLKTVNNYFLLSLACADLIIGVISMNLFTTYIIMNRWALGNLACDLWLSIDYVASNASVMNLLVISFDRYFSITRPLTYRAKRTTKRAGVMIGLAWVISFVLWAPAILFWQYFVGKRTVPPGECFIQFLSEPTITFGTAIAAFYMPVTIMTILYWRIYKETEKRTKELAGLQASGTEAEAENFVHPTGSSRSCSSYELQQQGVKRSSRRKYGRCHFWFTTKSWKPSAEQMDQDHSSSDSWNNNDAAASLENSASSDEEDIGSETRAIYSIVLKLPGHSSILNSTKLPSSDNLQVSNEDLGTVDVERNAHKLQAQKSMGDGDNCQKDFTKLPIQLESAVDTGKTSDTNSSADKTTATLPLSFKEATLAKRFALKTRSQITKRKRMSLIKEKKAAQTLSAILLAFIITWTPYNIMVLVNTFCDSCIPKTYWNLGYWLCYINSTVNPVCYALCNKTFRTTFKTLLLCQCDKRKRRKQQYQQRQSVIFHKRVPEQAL

rM2 = molecular target: T4, rM2 (Rattus norvegicus, UniProt P10980); assay: CRC screened as antagonist in presence of ACh EC80, rM2; assay type: cell-based; details: antagonist mode
T4 sequence (P10980 1-466): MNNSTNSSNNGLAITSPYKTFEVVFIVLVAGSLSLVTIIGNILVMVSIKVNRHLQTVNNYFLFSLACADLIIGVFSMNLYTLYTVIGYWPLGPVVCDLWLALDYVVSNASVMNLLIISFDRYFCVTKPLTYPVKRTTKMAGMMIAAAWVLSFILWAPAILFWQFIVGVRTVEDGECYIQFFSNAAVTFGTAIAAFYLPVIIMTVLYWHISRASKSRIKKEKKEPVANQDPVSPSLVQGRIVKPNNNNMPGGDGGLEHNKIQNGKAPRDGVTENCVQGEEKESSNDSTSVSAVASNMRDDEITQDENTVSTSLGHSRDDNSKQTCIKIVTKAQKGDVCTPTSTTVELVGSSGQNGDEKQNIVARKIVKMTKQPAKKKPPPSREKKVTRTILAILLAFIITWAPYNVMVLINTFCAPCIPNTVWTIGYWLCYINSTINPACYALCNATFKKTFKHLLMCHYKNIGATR

M1 = molecular target: T5, M1 (Rattus norvegicus, UniProt P08482); assay: M1 agonist screen; assay type: cell-based; details: for M1 activation when screened as an agonist: agonist mode
T5 sequence (P08482 1-460): T3 sequence (P11229 1-460) with A5V, T254S, P309S, R320K, A337G, I413V

M4 = molecular target: T6, M4 (Homo sapiens, UniProt P08173); assay: M4 antagonist screen; assay type: cell-based
T6 sequence (P08173 1-479): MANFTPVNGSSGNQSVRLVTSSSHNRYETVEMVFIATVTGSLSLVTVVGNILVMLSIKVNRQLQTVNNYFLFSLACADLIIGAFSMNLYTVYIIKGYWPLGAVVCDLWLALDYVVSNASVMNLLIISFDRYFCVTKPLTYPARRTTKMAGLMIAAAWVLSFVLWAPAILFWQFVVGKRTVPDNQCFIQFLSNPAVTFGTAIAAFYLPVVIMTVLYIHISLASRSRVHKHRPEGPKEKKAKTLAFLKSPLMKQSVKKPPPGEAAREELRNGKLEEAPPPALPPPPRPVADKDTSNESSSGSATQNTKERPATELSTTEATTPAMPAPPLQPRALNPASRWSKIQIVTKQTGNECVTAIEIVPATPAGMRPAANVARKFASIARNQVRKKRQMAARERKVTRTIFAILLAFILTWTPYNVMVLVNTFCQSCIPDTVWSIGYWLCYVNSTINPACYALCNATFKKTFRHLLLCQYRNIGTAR

M5 = molecular target: T7, M5 (Homo sapiens, UniProt P08912); assay: M5 antagonist screen; assay type: cell-based
T7 sequence (P08912 1-532): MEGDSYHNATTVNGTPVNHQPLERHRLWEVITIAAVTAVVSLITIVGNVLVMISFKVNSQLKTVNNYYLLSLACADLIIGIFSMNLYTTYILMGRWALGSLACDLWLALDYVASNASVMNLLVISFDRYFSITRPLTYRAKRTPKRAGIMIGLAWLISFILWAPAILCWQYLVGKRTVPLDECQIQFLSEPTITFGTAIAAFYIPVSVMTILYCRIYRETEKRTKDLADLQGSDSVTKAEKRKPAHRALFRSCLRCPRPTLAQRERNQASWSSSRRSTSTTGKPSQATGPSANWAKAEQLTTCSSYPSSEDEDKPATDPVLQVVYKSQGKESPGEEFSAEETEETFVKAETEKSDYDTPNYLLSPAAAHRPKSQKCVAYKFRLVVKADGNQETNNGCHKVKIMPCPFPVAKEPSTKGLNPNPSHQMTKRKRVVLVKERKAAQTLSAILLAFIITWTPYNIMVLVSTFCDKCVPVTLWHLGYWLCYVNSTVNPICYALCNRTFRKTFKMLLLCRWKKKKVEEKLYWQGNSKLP

Rat M1 = molecular target: T8, Rat M1 (Rattus norvegicus, UniProt P08482); assay: CRC screened as antagonist in presence of ACh EC80, Rat M1; assay type: cell-based; details: antagonist mode
T8 sequence (P08482 1-460): T3 sequence (P11229 1-460) with A5V, T254S, P309S, R320K, A337G, I413V

rM4 = molecular target: T9, rM4 (Rattus norvegicus, UniProt P08485); assay: CRC screened as antagonist in presence of ACh EC80, rM4; assay type: cell-based
T9 sequence (P08485 1-478): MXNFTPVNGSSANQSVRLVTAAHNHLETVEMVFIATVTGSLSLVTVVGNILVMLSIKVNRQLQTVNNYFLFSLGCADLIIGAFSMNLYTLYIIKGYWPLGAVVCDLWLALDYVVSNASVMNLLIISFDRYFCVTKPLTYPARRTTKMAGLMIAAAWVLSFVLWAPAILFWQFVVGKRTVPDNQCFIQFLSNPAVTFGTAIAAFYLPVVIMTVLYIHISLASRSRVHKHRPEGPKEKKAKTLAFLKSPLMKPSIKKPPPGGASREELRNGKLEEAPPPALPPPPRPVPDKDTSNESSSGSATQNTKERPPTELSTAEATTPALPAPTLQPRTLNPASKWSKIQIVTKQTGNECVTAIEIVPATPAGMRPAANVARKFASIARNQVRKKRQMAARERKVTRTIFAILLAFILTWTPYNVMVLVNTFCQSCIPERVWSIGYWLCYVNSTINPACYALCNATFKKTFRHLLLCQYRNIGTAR

[1] = cited from earlier work

SMILES: Cc1ccccc1CN1CCC(N2CCC(n3c(=O)[nH]c4ccccc43)CC2)CC1 [TBPB]
hM2 pIC50 (hM2): 5.46
EC50 (rM5): > 30 µM
hM1 % ACh Max (hM1): 40 % ACh Max
rM3 pIC50 (rM3): 5.26
rM2 pIC50 (rM2): 5.89

SMILES: Cc1ccccc1CN1CCC(N2CC3CC(n4c(=O)[nH]c5ccccc54)CC3C2)CC1 (stereo not shown) [compound 10]
M1 activation when screened as an agonist (M1): neither 9 nor 10 elicited M1 activation
Rat M1 % ACh Max (Rat M1): −1.07±1.3 % ACh Max
Rat M1 pIC50 (Rat M1): 5.20±0.04

SMILES: Cc1ccccc1CN1CCC(N2CCC(n3c(=O)[nH]c4ccccc43)C(F)C2)CC1 (stereo not shown) [compound 9]
M1 activation when screened as an agonist (M1): neither 9 nor 10 elicited M1 activation
IC50 (rM4): > 10 µM
rM4 % ACh Max (rM4; antagonist mode, ACh EC80): 26.6±3.4 % ACh Max
rM4 pIC50 (rM4; antagonist mode, ACh EC80): 5.29±0.09
pKa of the central piperidine nitrogen atom [1]: 9.4

Second part, the compound after the results:

M1 pEC50 (M1): 5.69±0.08
SMILES: CCOC(=O)N1CCC(N2CCC[C@@H](NC(=O)c3cccc(Br)c3)C2)CC1 [compound 14]

IC50 (M4): > 10 µM
IC50 (M5): > 10 µM
SMILES: CCOC(=O)N1CCC(N2CCC[C@@H](NC(=O)c3ccc(C(F)(F)F)nc3)C2)CC1 [compound 16]
